Assay results: publication PMC6429507, “Triterpene-Based Carboxamides Act as Good Inhibitors of Butyrylcholinesterase” (Molecules, 2019)
Counter-ions that a name gives are not always drawn. Like-named read-outs stand apart in the source and are kept apart here.

Tests used:
[1] = molecular target: acetylcholinesterase (AChE, electric eel) (Electrophorus electricus, UniProt O42275); details: for Grade of inhibition in% AChE / Ki' (uncompetitive inhibition) / Ki: mean ± SE; for Type of Inhibition / Ki' (uncompetitive inhibition) / Ki: AChE, electric eel; for Ki: read-out: Ki (competitive inhibition)
Chain of acetylcholinesterase (AChE, electric eel) (O42275 24-633): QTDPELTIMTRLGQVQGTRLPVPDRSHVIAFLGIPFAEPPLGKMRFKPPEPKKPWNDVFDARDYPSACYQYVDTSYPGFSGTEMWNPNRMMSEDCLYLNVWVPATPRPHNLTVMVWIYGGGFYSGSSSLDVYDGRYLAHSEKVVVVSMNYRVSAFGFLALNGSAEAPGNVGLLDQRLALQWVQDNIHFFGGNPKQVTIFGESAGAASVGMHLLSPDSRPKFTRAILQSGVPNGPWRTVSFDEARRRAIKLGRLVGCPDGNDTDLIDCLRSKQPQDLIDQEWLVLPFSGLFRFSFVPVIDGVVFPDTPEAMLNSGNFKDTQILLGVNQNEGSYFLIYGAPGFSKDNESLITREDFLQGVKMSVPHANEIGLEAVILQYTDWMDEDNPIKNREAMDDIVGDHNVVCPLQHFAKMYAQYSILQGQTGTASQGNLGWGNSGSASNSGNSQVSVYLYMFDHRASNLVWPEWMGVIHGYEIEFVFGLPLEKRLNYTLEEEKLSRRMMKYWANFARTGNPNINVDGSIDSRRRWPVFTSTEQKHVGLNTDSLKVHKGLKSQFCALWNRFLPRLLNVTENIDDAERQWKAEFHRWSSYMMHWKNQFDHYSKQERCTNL
From the text: (§1) In this study, carboxamides with different triterpenoic backbones (ursolic, oleanolic, maslinic, betulinic, and platanic acids), and various amine residues (Scheme 1), were investigated.
(§2) A TECAN SpectraFluorPlus working in the kinetic mode and measuring the absorbance at λ = 415 nm was used for the enzymatic studies. Acetylcholinesterase (from Electrophorus electricus), 5,5′-dithiobis-(2-nitrobenzoic acid) (DTNB) and acetylthiocholine iodide were purchased from Sigma. Butyrylcholinesterase (from equine serum) was purchased from Fluka. Preparation of the solutions, assay procedure, as well as molecular modeling conditions can be found in the Supplementary Materials.
(§3) 3.1 Preparation of the solutions
(§4) Preparation of 50 mM Tris-HCl buffer solutions: Tris(hydroxymethyl)-aminomethane (606 mg) was dissolved in bidestilled water (100 mL) and adjusted with HCl to a pH of 8.0 ± 0.1. Buffers were freshly prepared and stored in the refrigerator. AChE solution 2.005 U/mL: the enzyme (271 U/mg, 0.037 mg) was dissolved in freshly prepared buffer pH 8.0 (5 mL) containing NaN3 (0.98 mg). BChE solution 2.040 U/mL: the enzyme (7.54 U/mg, 1.353 mg) was dissolved in freshly prepared buffer pH 8.0 (5 mL) containing NaN3 (0.98 mg). DTNB solution 3 mM: DTNB (23.8 mg) was dissolved in freshly prepared buffer pH 8.0 (20 mL) containing NaCl (116.8 mg) and MgCl2 (38.0 mg). ATChI solution 15 mM:
(§5) ATChI (43.4 mg) was dissolved in bidestilled water (10 mL). All solutions were stored in Eppendorf caps in the refrigerator or in the freezer, if necessary. The pure compounds were […]
(§6) dissolved in bidistilled water. The final concentrations for the enzymatic assay were obtained by diluting the stock solution with bidistilled water.
(§7) A mixture of the DTNB solution (125 µL), enzyme solution (25 µL) and compounds solutions (25 µL, 3 different concentrations and once blank water) was prepared and incubated at 30 °C for 20 min. The substrate (25 µL, 4 different concentrations) was added to start the enzymatic reaction. The absorbance data (l = 415 nm) was recorded under a controlled temperature of 30 °C for 30 min at 1 min intervals. The substrate concentrations in the test were as follows: […]
(§8) determined as the quotient of the slopes (compound divided by blank) of the linear ranges.
(§9) The used substrate concentration was 0.625 mM. The absorbance data was recorded under a controlled temperature of 30 °C for 10 min.

[2] = molecular target: T1, butyrylcholinesterase (BChE, equine serum) (Equus caballus, UniProt P81908); test: Ellman's assay, butyrylcholinesterase inhibition; type: biochemical; details: for Grade of inhibition in% BChE: mean ± SE; for selectivity F (percent inhibition for AChE divided by percent inhibition for BChE): towards BChE
T1 construct: Butyrylcholinesterase (from equine serum) was purchased from Fluka; purchased Fluka; host or cells: equine serum
T1 sequence (P81908 whole entry): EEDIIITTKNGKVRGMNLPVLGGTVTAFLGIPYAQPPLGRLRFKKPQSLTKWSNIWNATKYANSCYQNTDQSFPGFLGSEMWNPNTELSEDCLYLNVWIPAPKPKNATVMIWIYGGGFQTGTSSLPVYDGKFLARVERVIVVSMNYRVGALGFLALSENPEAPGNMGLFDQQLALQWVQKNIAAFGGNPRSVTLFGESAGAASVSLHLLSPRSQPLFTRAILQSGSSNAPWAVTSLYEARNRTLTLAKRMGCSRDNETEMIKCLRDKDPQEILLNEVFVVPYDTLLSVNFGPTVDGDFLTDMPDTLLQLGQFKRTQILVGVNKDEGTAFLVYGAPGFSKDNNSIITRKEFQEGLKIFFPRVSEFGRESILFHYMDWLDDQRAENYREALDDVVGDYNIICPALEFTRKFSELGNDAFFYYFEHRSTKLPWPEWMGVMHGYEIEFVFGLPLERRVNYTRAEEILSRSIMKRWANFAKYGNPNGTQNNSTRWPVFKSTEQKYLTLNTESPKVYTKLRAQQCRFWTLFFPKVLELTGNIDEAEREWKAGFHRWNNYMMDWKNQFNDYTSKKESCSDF
From the text: as §1, §2, §3, §4, §5, §6, §7, §8, §9

[3] = BChE, equine serum, Ellman's assay
[4] = BChE, equine serum, Ellman's assay, read-out: Ki (competitive inhibition)
[5] = read-out: Grade of inhibition in% BChE

SMILES | Grade of inhibition in% AChE ([1]; c = 10 µM) | Grade of inhibition in% BChE ([2]; c = 10 µM) [%] | Type of Inhibition ([2]; BChE, equine serum) | Ki′ (uncompetitive inhibition) [2, 3] [µM] | Ki [2, 4] [µM] | also measured
C=C(C)C1CC[C@]2(C(=O)NCCN)CC[C@]3(C)C(CCC4[C@@]5(C)CC[C@H](OC(C)=O)C(C)(C)C5CC[C@]43C)C12 (some centres unmarked) [Compound 14] | 56.17 ± 0.64% | 42.70 ± 1.33 | – | – | – | –
CC(=O)O[C@H]1CC[C@]2(C)[C@H]3CC[C@@H]4[C@H]5[C@H](C(C)=O)CC[C@]5(C(=O)NCCN)CC[C@@]4(C)[C@]3(C)CC[C@H]2C1(C)C [Compound 15] | 44.71 ± 0.24% | 29.55 ± 2.97 | mixed-type | 17.14 ± 1.67 | 11.9 ± 1.17 | Type of Inhibition [1]: mixed-type; Ki' (uncompetitive inhibition) [1]: 6.83 ± 0.17 µM; Ki [1]: 3.06 ± 0.38 µM
CC(=O)O[C@H]1CC[C@]2(C)[C@H]3CC[C@@H]4[C@H]5[C@H](C(C)=O)CC[C@]5(C(=O)NCCN(C)C)CC[C@@]4(C)[C@]3(C)CC[C@H]2C1(C)C [Compound 25] | no inhibition | 88.49 ± 0.58 | mixed-type | – | – | –
CN(C)CCNC(=O)[C@]12CCC(C)(C)C[C@H]1C1=CC[C@@H]3[C@@]4(C)C[C@@H](O)[C@H](O)C(C)(C)[C@@H]4CC[C@@]3(C)[C@]1(C)CC2 [Compound 28, (2α,3β)-N-[2-(Dimethylamino)-ethyl]-2,3-dihydroxy-olean-12-en-28-amide] | – | – | mixed-type | 27.26 ± 3.47 | 2.2 ± 0.25 | Grade of inhibition in% AChE ([1]; c = 30 µM): 13.47 ± 0.55%; Grade of inhibition in% BChE ([2]; c = 30 µM): 79.01 ± 0.29%
COc1ccc2c3c1O[C@H]1C[C@@H](O)C=C[C@@]31CCN(C)C2 [GH, Galantamine hydrobromide, reference compound] | – | – | competitive | – | – | inhibition at 10 µM [2, 5]: 57.79 ± 0.52%; inhibition at 30 µM [2, 5]: 80.25 ± 0.33%
CC(=O)OC1CC2(C)C(CCC3(C)C2CC=C2C4CC(C)(C)CCC4(C(=O)NCCN)CCC23C)C(C)(C)C1OC(C)=O (stereo not drawn) [Compound 13, (2α,3β)-N-(2-Aminoethyl)-2,3-diacetyloxy-olean-12-en-28-amide] | 31.91 ± 0.32% | 40.83 ± 0.21 | – | – | – | –
CC1(C)CCC2(C(=O)NCCN3CCCCC3)CCC3(C)C(=CCC4C5(C)CC(O)C(O)C(C)(C)C5CCC43C)C2C1 (stereo not drawn) [Compound 48, (2α,3β)-N-(2-Piperidin-1-ylethyl)-2,3-dihydroxy-olean-12-en-28-amide] | 9.32 ± 0.29% | 69.30 ± 1.12 | mixed-type | 6.21 ± 0.47 | 2.26 ± 0.05 | –
CC1(C)CCC2(C(=O)NCCN)CCC3(C)C(=CCC4C5(C)CC(O)C(O)C(C)(C)C5CCC43C)C2C1 (stereo not drawn) [Compound 18, (2α,3β)-N-(2-Aminoethyl)-2,3-dihydroxy-olean-12-en-28-amide] | – | – | – | – | – | Grade of inhibition in% AChE ([1]; c = 30 µM): 39.15 ± 0.16%; Grade of inhibition in% BChE ([2]; c = 30 µM): 68.83 ± 1.57%
C=C(C)C1CC[C@]2(C(=O)NCCN)CC[C@]3(C)C(CCC4[C@@]5(C)CC[C@H](O)C(C)(C)C5CC[C@]43C)C12 (some centres unmarked) [Compound 19] | 62.95 ± 0.61% | 36.70 ± 5.34 | – | – | – | –
C[C@@H]1CC[C@]2(C(=O)NCCN)CC[C@]3(C)C(=CCC4[C@@]5(C)CC[C@H](O)C(C)(C)C5CC[C@]43C)C2[C@H]1C (some centres unmarked) [Compound 16] | 28.54 ± 0.51% | 64.10 ± 1.04 | mixed-type | 12.15 ± 0.45 | 5.55 ± 0.12 | –
C=C(C)C1CC[C@]2(C(=O)NCCN3CCCC3)CC[C@]3(C)C(CCC4[C@@]5(C)CC[C@H](O)C(C)(C)C5CC[C@]43C)C12 (some centres unmarked) [Compound 39] | – | – | mixed-type | > 9 | 3.24 ± 0.58 | Grade of inhibition in% AChE ([1]; c = 30 µM): 58.81 ± 0.80%; Grade of inhibition in% BChE ([2]; c = 30 µM): 60.48 ± 0.05%
CC(=O)O[C@H]1CC[C@@]2(C)C(CC[C@]3(C)C2CC=C2C4[C@@H](C)[C@H](C)CC[C@]4(C(=O)NCCN4CCCC4)CC[C@]23C)C1(C)C (some centres unmarked) [Compound 31] | 14.54 ± 0.36% | 50.49 ± 2.23 | mixed-type | 6.00 ± 0.47 | 4.42 ± 0.34 | Ki ([2]; experimental Ki restated in docking Table 3, unit inferred, read-out: Ki): 4.42 µM
C=C(C)C1CC[C@]2(C(=O)NCCN3CCCCC3)CC[C@]3(C)C(CCC4[C@@]5(C)CC[C@H](O)C(C)(C)C5CC[C@]43C)C12 (stereo partly drawn) [Compound 49, (3β)-N-(2-piperidin-1-ylethyl)-3-hydroxy-lup-20(29)-en-28-amide] | 82.72 ± 0.09% | 66.02 ± 0.70 | mixed-type | > 8 | 2.52 ± 0.29 | Type of Inhibition [1]: mixed-type; Ki' (uncompetitive inhibition) [1]: 1.42 ± 0.08 µM; Ki [1]: 1 ± 0.09 µM
CC(=O)[C@@H]1CC[C@]2(C(=O)NCCN3CCCCC3)CC[C@]3(C)[C@H](CC[C@@H]4[C@@]5(C)CC[C@H](O)C(C)(C)[C@@H]5CC[C@]43C)[C@@H]12 [Compound 50, (3β)-N-(2-Piperidin-1-ylethyl)-3-hydroxy-20-oxo-30-norlupan-28-amide] | 52.14 ± 1.55% | 88.37 ± 0.85 | mixed-type | 3.09 ± 0.03 | 0.97 ± 0.04 | –
CC(=O)OC1CC2(C)C(CCC3(C)C2CC=C2C4CC(C)(C)CCC4(C(=O)NCCN4CCCC4)CCC23C)C(C)(C)C1OC(C)=O (stereo not drawn) [Compound 33, (2α,3β)-N-(2-Pyrrolidin-1-ylethyl)-2,3-diacetyloxy-olean-12-en-28-amide] | – | – | – | – | – | Grade of inhibition in% AChE ([1]; c = 30 µM): 23.47 ± 4.59%; Grade of inhibition in% BChE ([2]; c = 30 µM): 33.01 ± 2.91%
C[C@@H]1CC[C@]2(C(=O)NCCN3CCCC3)CC[C@]3(C)C(=CCC4[C@@]5(C)CC[C@H](O)C(C)(C)C5CC[C@]43C)C2[C@H]1C (some centres unmarked) [Compound 36] | – | – | mixed-type | 2.23 ± 0.12 | 0.47 ± 0.08 | Grade of inhibition in% AChE ([1]; c = 30 µM): 31.45 ± 0.60%; Grade of inhibition in% BChE ([2]; c = 30 µM): 85.66 ± 0.10%
CC(=O)O[C@H]1CC[C@]2(C)[C@H]3CC=C4[C@@H]5CC(C)(C)CC[C@]5(C(=O)NCCN5CCCC5)CC[C@@]4(C)[C@]3(C)CC[C@H]2C1(C)C [Compound 32, (3β)-N-(2-Pyrrolidin-1-ylethyl)-3-acetyloxy-olean-12-en-28-amide] | 7.29 ± 0.50% | 65.73 ± 0.14 | mixed-type | 29.88 ± 1.13 | 2.02 ± 0.56 | selectivity F (percent inhibition for AChE divided by percent inhibition for BChE) [2]: 0.11
CN(C)CCNC(=O)C12CCC(C)(C)CC1C1=CCC3C4(C)CCC(O)C(C)(C)C4CCC3(C)C1(C)CC2 (stereo not drawn) [Compound 27, (3β)-N-[2-(Dimethylamino)-ethyl]-3-hydroxy-olean-12-en-28-amide] | 5.54 ± 0.07% | 67.10 ± 0.07 | mixed-type | 9.07 ± 0.02 | 1.31 ± 0.01 | selectivity F (percent inhibition for AChE divided by percent inhibition for BChE) [2]: 0.08
